For 21 compounds, IC50 results are on record in patent US20150352108A1, “AMINO-PYRIMIDINE COMPOUNDS AS INHIBITORS OF TBK1 AND/OR IKK EPSILON” (Alzheimer's Institute of America, priority 2009, published 2015).

One experiment deals with T1, TBK1 (Homo sapiens, UniProt Q9UHD2).
T1 construct: His-tag; made in house; host or cells: Sf9 insect cells
T1 sequence (Q9UHD2 1-729): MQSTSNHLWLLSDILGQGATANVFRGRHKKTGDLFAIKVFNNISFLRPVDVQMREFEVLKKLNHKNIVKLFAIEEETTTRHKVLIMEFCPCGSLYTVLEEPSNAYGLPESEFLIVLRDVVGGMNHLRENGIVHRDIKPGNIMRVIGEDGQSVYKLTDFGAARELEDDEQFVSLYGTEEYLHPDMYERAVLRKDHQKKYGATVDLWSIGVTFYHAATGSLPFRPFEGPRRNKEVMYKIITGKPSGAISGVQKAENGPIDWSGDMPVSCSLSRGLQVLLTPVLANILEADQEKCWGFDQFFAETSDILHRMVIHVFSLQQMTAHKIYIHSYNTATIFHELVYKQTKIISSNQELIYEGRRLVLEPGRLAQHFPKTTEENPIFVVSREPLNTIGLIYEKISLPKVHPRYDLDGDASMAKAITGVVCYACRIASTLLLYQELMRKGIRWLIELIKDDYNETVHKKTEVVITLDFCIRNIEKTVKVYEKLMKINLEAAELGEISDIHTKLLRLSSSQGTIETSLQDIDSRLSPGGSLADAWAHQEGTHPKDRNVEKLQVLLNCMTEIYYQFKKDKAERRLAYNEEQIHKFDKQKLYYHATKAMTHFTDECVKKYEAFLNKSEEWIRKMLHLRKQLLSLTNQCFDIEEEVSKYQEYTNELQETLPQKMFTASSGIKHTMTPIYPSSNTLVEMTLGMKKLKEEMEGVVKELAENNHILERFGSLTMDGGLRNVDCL
As to the kind of experiment: In-vitro TBK1 kinase assay ([γ33]ATP filter-plate). The class given is biochemical. An outline of the steps:
(§1)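 Phosphorylation of casein or myelin basic protein was counted by P-81 filter capture after 30-45 min reactions stopped with phosphoric acid, with counts normalized to DMSO after background subtraction. ATP was twice Km: 60 μM for TBK1 and 32 μM for IKKε, plus [γ33]ATP. Sf9-expressed His-tag enzymes were used at normal/sensitized levels of 0.1/0.02 μg/ml (TBK1) and 0.1/0.015 μg/ml (IKKε).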

The target in a further experiment is T2, IKKε (Homo sapiens, UniProt Q14164).
T2 construct: His-tag; made in house; host or cells: Sf9 insect cells
T2 sequence (Q14164 1-716): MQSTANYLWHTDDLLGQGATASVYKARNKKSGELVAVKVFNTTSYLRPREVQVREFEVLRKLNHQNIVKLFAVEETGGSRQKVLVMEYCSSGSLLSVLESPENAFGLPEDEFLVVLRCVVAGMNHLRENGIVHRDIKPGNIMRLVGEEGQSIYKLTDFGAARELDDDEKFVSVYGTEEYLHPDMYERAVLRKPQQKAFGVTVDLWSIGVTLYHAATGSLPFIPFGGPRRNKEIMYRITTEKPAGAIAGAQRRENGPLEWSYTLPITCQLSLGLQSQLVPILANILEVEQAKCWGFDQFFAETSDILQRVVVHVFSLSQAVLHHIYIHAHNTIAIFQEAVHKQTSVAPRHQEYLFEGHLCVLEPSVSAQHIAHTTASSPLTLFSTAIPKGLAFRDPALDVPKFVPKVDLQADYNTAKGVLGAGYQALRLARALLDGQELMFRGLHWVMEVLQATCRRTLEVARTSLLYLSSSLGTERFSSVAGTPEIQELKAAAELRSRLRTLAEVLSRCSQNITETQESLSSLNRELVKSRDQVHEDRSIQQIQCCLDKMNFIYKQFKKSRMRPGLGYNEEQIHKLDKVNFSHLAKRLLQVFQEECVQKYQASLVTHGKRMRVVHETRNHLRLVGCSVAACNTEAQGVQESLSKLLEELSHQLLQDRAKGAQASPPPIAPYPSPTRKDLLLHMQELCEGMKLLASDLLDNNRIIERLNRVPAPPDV
As to the kind of experiment: In-vitro IKKε kinase assay ([γ33]ATP filter-plate). The experiment is classed as biochemical. An outline of the steps:
as §1

The mark [1] stands for this setting: text bins, read-out: IC50 for inhibition of the kinase activity of TBK1.
Where [2] appears, read: text bins, read-out: IC50 for inhibition of the kinase activity of IKKε.

Read-outs that look alike come from different tables or passages of the source.

What is called IC50 is the concentration at which inhibition is half-maximal. Consider `N#Cc1cc(-c2ccnc(Nc3ccc(N4CCOCC4)cc3)n2)ccc1OCC[C@H]1CCCCN1C(=O)CO` [compound 448, 2-{2-[(2R)-1-(hydroxyacetyl)piperidin-2-yl]ethoxy}-5-(2-{[4-(morpholin-4-yl)phenyl]amino}pyrimidin-4-yl)benzonitrile], for which the IC50 is 10 to 100 nM at TBK1 (setting [1]) and 50 to 500 nM on IKKε (setting [2]).

Consider `CC(C)C(=O)Nc1ccc(-c2ccnc(Nc3cccc(CCO)c3)n2)cc1C#N` [compound 450, N-[2-cyano-4-(2-{[3-(2-hydroxyethyl)phenyl]amino}pyrimidin-4-yl)phenyl]-2-methylpropanamide], for which the IC50 at TBK1 (setting [1]) was under 10 nM; at IKKε (setting [2]), 5 to 50 nM.

As for `N#Cc1cc(-c2ccnc(Nc3ccc(N4CCOCC4)cc3)n2)ccc1OCC1CCNC1` (stereo not drawn) [compound 456, 5-(2-{[4-(morpholin-4-yl)phenyl]amino}pyrimidin-4-yl)-2-(pyrrolidin-3-ylmethoxy) benzonitrile], the values for the IC50 at TBK1 (setting [1]) and at IKKε (setting [2]) were under 10 nM and 5 to 50 nM, respectively.

On to `N#Cc1cc(-c2ccnc(Nc3ccc(N4CCOCC4)cc3)n2)ccc1OCCC1CCN(C(=O)CO)CC1` [compound 457, 2-{2-[1-(hydroxyacetyl)piperidin-4-yl]ethoxy}-5-(2-{[4-(morpholin-4-yl)phenyl]amino}pyrimidin-4-yl)benzonitrile], for which the IC50 at TBK1 (setting [1]) fell in the range of 10 to 100 nM; on IKKε (setting [2]), 5 to 50 nM.

For `CC(C)(COc1ccc(-c2ccnc(Nc3ccc(N4CCOCC4)cc3)n2)cc1C#N)C(=O)O` [compound 460, 3-[2-cyano-4-(2-{[4-(morpholin-4-yl)phenyl]amino}pyrimidin-4-yl)phenoxy]-2,2-dimethylpropanoic acid], the IC50 lay within 10 to 100 nM on TBK1 (setting [1]) and 5 to 50 nM on IKKε (setting [2]).

For `N#Cc1cc(-c2ccnc(Nc3ccc(N4CCOCC4)cc3)n2)ccc1OCC1CCN(C(=O)CO)C1` (stereo not drawn) [compound 461, 2-{[1-(hydroxyacetyl)pyrrolidin-3-yl]methoxy}-5-(2-{[4-(morpholin-4-yl)phenyl]amino}pyrimidin-4-yl)benzonitrile], the IC50 on TBK1 (setting [1]) is under 10 nM; at IKKε (setting [2]), 5 to 50 nM.

Take `CC(C)C(=O)Nc1ccc(-c2ccnc(Nc3ccc(CCN4CCOCC4)cc3)n2)cc1C#N` [compound 463, N-{2-cyano-4-[2-({4-[2-(morpholin-4-yl)ethyl]phenyl}amino)pyrimidin-4-yl]phenyl}-2-methylpropanamide]: the concentration for half-maximal inhibition (IC50) on TBK1 (setting [1]) lay within 10 to 100 nM; at IKKε (setting [2]), 5 to 50 nM.

As to `CC(C)C(=O)Nc1ccc(-c2ccnc(Nc3cccc(CCN4CCOCC4)c3)n2)cc1C#N` [compound 466, N-{2-cyano-4-[2-({3-[2-(morpholin-4-yl)ethyl]phenyl}amino)pyrimidin-4-yl]phenyl}-2-methylpropanamide], the IC50 at TBK1 (setting [1]) was under 10 nM; at IKKε (setting [2]), 5 to 50 nM.

`COc1cc(-c2ccnc(Nc3ccc(N4CCOCC4)cc3)n2)cc(C#N)c1OC1CCOCC1` [compound 467, 3-methoxy-5-(2-{[4-(morpholin-4-yl)phenyl]amino}pyrimidin-4-yl)-2-(tetrahydro-2H-pyran-4-yloxy)benzonitrile]: the IC50 on TBK1 (Table 3, read-out: TBK1 IC50) was 0.2 nM; on TBK1 (setting [1]), under 10 nM; on IKKε (Table 3, read-out: IKKε IC50) it was 3.5 nM; on IKKε (setting [2]), under 5 nM.

On to `N#Cc1cc(-c2ccnc(Nc3ccc(N4CCOCC4)cc3)n2)ccc1O[C@@H]1CCNC1` [compound 470, 5-(2-{[4-(morpholin-4-yl)phenyl]amino}pyrimidin-4-yl)-2-[(3R)-pyrrolidin-3-yloxy]benzonitrile], for which the IC50 was under 10 nM at TBK1 (setting [1]) and 5 to 50 nM at IKKε (setting [2]).

Regarding `N#Cc1cc(-c2ccnc(Nc3ccc(CNC(=O)c4cnc(N)s4)cc3)n2)ccc1OC1CCOCC1` [compound 490, 2-amino-N-[4-({4-[3-cyano-4-(tetrahydro-2H-pyran-4-yloxy)phenyl]pyrimidin-2-yl}amino)benzyl]-1,3-thiazole-5-carboxamide], the IC50 on TBK1 (Table 3, read-out: TBK1 IC50) was 0.3 nM; at TBK1 (setting [1]), under 10 nM; on IKKε (Table 3, read-out: IKKε IC50), 1.4 nM; on IKKε (setting [2]), under 5 nM.

Turning to `CC(C)(C)OC(=O)NCc1ccc(Nc2nccc(-c3ccc(OC4CCOCC4)c(C#N)c3)n2)cc1` [compound 491, tert-butyl [4-({4-[3-cyano-4-(tetrahydro-2H-pyran-4-yloxy)phenyl]pyrimidin-2-yl}amino)benzyl] carbamate], the IC50 at TBK1 (setting [1]) was under 10 nM; on IKKε (setting [2]), 5 to 50 nM.

For `COc1cc(Nc2nccc(-c3ccc(OC4CCOCC4)c(C#N)c3)n2)ccc1C(=O)N1CC2CC1CN2` (stereo not drawn) [compound 496, 5-(2-{[4-(2,5-diazabicyclo[2.2.1]hept-2-ylcarbonyl)-3-methoxyphenyl]amino}pyrimidin-4-yl)-2-(tetrahydro-2H-pyran-4-yloxy)benzonitrile], the values for the IC50 on TBK1 (setting [1]) and on IKKε (setting [2]) were under 10 nM and under 5 nM, respectively.

As for `C[C@H](O)C(=O)N1CCC(Oc2ccc(-c3ccnc(Nc4ccc(CN5CCOCC5)cc4)n3)cc2C#N)CC1` [compound 509, 2-({1-[(2S)-2-hydroxypropanoyl]piperidin-4-yl}oxy)-5-(2-{[4-(morpholin-4-ylmethyl)phenyl]amino}pyrimidin-4-yl)benzonitrile], the IC50 at TBK1 (setting [1]) is under 10 nM; at IKKε (setting [2]), 5 to 50 nM.

For `COc1ccc(Nc2nc(-c3ccc(OC4CCOCC4)c(C#N)c3)c3nc[nH]c3n2)cc1OC` [compound 532, 5-{2-[(3,4-Dimethoxyphenyl)amino]-3H-purin-6-yl}-2-(tetrahydro-2H-pyran-4-yloxy)benzonitrile], the figures for the IC50 at TBK1 (setting [1]) and on IKKε (setting [2]) were 10 to 100 nM and 5 to 50 nM, respectively.

Turning to `CC(C)COc1ccc(-c2ccnc(Nc3cccc(CS(=O)(=O)NCCO)c3)n2)cc1C#N` [compound 534, 1-[3-({4-[3-Cyano-4-(2-methylpropoxy)phenyl]pyrimidin-2-yl}amino)phenyl]-N-(2-hydroxyethyl) methanesulfonamide], the IC50 at TBK1 (Table 3, read-out: TBK1 IC50) was 0.4 nM; at TBK1 (setting [1]) it was under 10 nM; at IKKε (Table 3, read-out: IKKε IC50), 0.8 nM; at IKKε (setting [2]), under 5 nM.

Take `CN(C)c1cccc(Nc2nccc(-c3ccc(OC4CCOCC4)c(C#N)c3)n2)c1` [compound 539, 5-(2-{[3-(Dimethylamino)phenyl]amino}pyrimidin-4-yl)-2-(tetrahydro-2H-pyran-4-yloxy)benzonitrile]: the IC50 at TBK1 (setting [1]) was under 10 nM; on IKKε (setting [2]) it was under 5 nM.

As to `N#Cc1cc(-c2nc(Nc3ccc(N4CCOCC4)cc3)nc3[nH]cnc23)ccc1OC1CCOCC1` [compound 553], the half-inhibitory concentration (IC50) lay within 10 to 100 nM on TBK1 (setting [1]) and 5 to 50 nM at IKKε (setting [2]).

For the compound `CC1(C)CC1C(=O)Nc1ccc(-c2ccnc(Nc3ccc(N4CCOCC4)cc3)n2)cc1C#N` (stereo not drawn) [compound 554, N-[2-Cyano-4-(2-{[4-(morpholin-4-yl)phenyl]amino}pyrimidin-4-yl)phenyl]-2,2-dimethylcyclopropane-carboxamide], the IC50 at TBK1 (setting [1]) was under 10 nM; on IKKε (setting [2]), 5 to 50 nM.

As to `COCCNCc1ccc(Nc2nccc(-c3ccc(NC(=O)C4CC4)c(C#N)c3)n2)cc1` [compound 557], the IC50 fell in the range of 10 to 100 nM on TBK1 (setting [1]) and 5 to 50 nM at IKKε (setting [2]).

For the compound `COCCNC(=O)c1ccc(Nc2nccc(-c3ccc(NC(=O)C4CC4)c(C#N)c3)n2)cc1OC` [compound 558, 4-[(4-{3-Cyano-4-[(cyclopropylcarbonyl)amino]phenyl}pyrimidin-2-yl)amino]-2-methoxy-N-(2-methoxyethyl) benzamide], the figures for the IC50 at TBK1 (setting [1]) and on IKKε (setting [2]) were under 10 nM and under 5 nM, respectively.
